Drawing on patent US11001564B2, “Substituted chromane-8-carboxamide compounds and analogues thereof, and methods using same” (priority 2016, dated 2021), this text covers EC50 for 28 molecules.

Where a name gives a salt, the structure may show the parent alone.

The subject of the first assay is HBV rcDNA in HepDE19 cells. Description: HepDE19 assay with bDNA quantitation of HBV rcDNA. The assay is classed as cell-based, hepatitis B virus (HBV). The conditions noted are these: HepDE19 cells, 7 day incubation, rcDNA by Quantigene 2.0 bDNA assay; read-out: DE-19 bDNA EC50. In short, it runs like this:
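HepG2-derived HepDE19 cells, switched to Tet-free medium, were exposed 7 days at 37 °C to compound (8-point ½-log series from 25 μM, 0.5% DMSO). HBV rcDNA measured by bDNA assay with HBV-specific probes; EC50/EC90 by 4-parameter fit. CC50 from CellTiter-Glo ATP on replicate plates after 4 days.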
For `COC1CCOc2c(C(=O)Nc3ccc(F)c(F)c3)cccc21` (single isomer, unassigned) [Compound 7, N-(3,4-difluorophenyl)-4-methoxychromane-8-carboxamide], the concentration for a half-maximal effect (EC50) (usually the concentration giving half of the maximal effect) was determined as 1.8 µM.

On to `CN1CCC(NC(=O)OCc2ccccn2)c2cccc(C(=O)Nc3ccc(F)c(F)c3)c21` (single isomer, unassigned) [Compound 181, Pyridin-2-ylmethyl (8-((3,4-difluorophenyl)carbamoyl)-1-methyl-1,2,3,4-tetrahydroquinolin-4-yl)carbamate], for which the half-maximal effective concentration (EC50) stood at 2.5 µM.

Still in this assay, the particulars now being: Hepatitis B virus, HepDE19, 168 h, HepDE19 cells, 7 day incubation, rcDNA by Quantigene 2.0 bDNA assay; read-out: DE-19 bDNA EC50.
For `O=C(N[C@H]1CCOc2c1ccc(Cl)c2C(=O)Nc1ccc(F)c(F)c1)OCc1ccccn1` [Compound 90, Pyridin-2-ylmethyl (S)-(7-chloro-8-((3,4-difluorophenyl)carbamoyl)chroman-4-yl)carbamate], the EC50 was found to be 8.4 µM.

Regarding `O=C(Nc1ccc(F)c(F)c1)c1ccc(F)c2c1OCCC2=O` [Compound 60, N-(3,4-difluorophenyl)-5-fluoro-4-oxochromane-8-carboxamide], the concentration for a half-maximal effect (EC50) was 3.9 µM.

As to `COc1ccnc(N[C@H]2CCOc3c(C(=O)Nc4ccc(F)c(F)c4)cccc32)n1` [Compound 54, (S)—N-(3,4-Difluorophenyl)-4-((4-methoxypyrimidin-2-yl)amino)chromane-8-carboxamide], the EC50 amounted to 4.1 µM.

Consider `O=C(N[C@H]1CCOc2c(C(=O)Nc3ccc(F)c(F)c3)cccc21)OCC1CCCCN1` (single isomer, unassigned) [Compound 85], for which the concentration giving a half-maximal response (EC50) was found to be 19 µM.

`Cc1cc(NC(=O)c2ccc(F)c3c2OCC[C@@H]3NC(=O)OCc2ccncn2)ccc1F` [Compound 130, Pyrimidin-4-ylmethyl (S)-(5-fluoro-8-((4-fluoro-3-methylphenyl)carbamoyl)chroman-4-yl)carbamate]: the concentration giving a half-maximal response (EC50) is 0.62 µM.

As to `Cc1cnc(N[C@H]2CCOc3c(C(=O)Nc4ccc(F)c(F)c4)cccc32)nc1` [Compound 58, (S)—N-(3,4-Difluorophenyl)-4-((5-methylpyrimidin-2-yl)amino)chromane-8-carboxamide], the half-maximal effective concentration (EC50) came to 9.7 µM.

As to `O=C(N[C@H]1CCOc2c(C(=O)Nc3ccc(F)c(Cl)c3)ccc(F)c21)OCc1ccccn1` [Compound 105, Pyridin-2-ylmethyl (S)-(8-((3-chloro-4-fluorophenyl)carbamoyl)-5-fluorochroman-4-yl)carbamate], the 50% effective concentration (EC50) is 0.37 µM.

For the molecule `O=C(N[C@H]1CCOc2c(C(=O)Nc3ccc(F)c(Cl)c3)ccc(F)c21)OCCN1CCCC1=O` [Compound 159, 2-(2-Oxopyrrolidin-1-yl)ethyl (S)-(5-fluoro-8-((3-chloro-4-fluorophenyl)carbamoyl)chroman-4-yl)carbamate], the 50% effective concentration (EC50) is 0.41 µM.

In the case of `Cc1cc(NC(=O)c2ccc(F)c3c2OCC[C@@H]3NC(=O)NCCC(=O)O)ccc1F` [Compound 152, (S)-3-(3-(5-Fluoro-8-((4-fluoro-3-methylphenyl)carbamoyl)chroman-4-yl)ureido)propanoic acid], the concentration for a half-maximal effect (EC50) came to 15 µM.

Consider `CC(C)NS(=O)(=O)N[C@H]1CCOc2c(C(=O)Nc3ccc(F)c(F)c3)cccc21` (stereo in doubt) [Compound 15], for which the EC50 stood at 9.7 µM.

With `O=C1CCOc2c1ccc(Cl)c2C(=O)Nc1ccc(F)c(F)c1` [Compound 77, 7-chloro-N-(3,4-difluorophenyl)-4-oxochromane-8-carboxamide], the EC50 worked out at 23 µM.

Consider `CN1CCCC(COC(=O)N[C@H]2CCOc3c(C(=O)Nc4ccc(F)c(F)c4)cccc32)C1` (single isomer, unassigned) [Compound 98], for which the EC50 turned out to be 23 µM.

Consider `Cc1cc(NC(=O)c2ccc(F)c3c2OCC[C@@H]3NC(=O)OC[C@@H]2CCC(=O)N2)ccc1F` [Compound 137, ((S)-5-Oxopyrrolidin-2-yl)methyl ((S)-5-fluoro-8-((4-fluoro-3-methylphenyl)carbamoyl)chroman-4-yl)carbamate], for which the concentration giving a half-maximal response (EC50) stood at 0.9 µM.

As for `CC(C)(C)OC(=O)N[C@H]1CCOc2c(C(=O)Nc3ccc(F)c(Cl)c3)ccc(F)c21` [Compound 158, tert-Butyl (S)-(8-((3-chloro-4-fluorophenyl)carbamoyl)-5-fluorochroman-4-yl)carbamate], the EC50 is 5.8 µM.

On to `O=C(N[C@H]1CCOc2c(C(=O)Nc3ccc(F)c(F)c3)cccc21)c1cncs1` [Compound 12, N-(8-((3,4-difluorophenyl)carbamoyl)chroman-4-yl)thiazole-5-carboxamide], for which the EC50 stood at 8.3 µM.

Turning to `COC(=O)N[C@H]1CCOc2c(C(=O)Nc3ccc(F)cc3)cccc21` [Compound 33, Methyl (S)-(8-((4-fluorophenyl)carbamoyl)chroman-4-yl)carbamate], the half-maximal effective concentration (EC50) was 3.5 µM.

`O=C1CCOc2c1ccc(F)c2C(=O)Nc1ccc(F)c(F)c1` [Compound 64, N-(3,4-difluorophenyl)-7-fluoro-4-oxochromane-8-carboxamide]: the EC50 worked out at 3.8 µM.

The same assay, now with this note: Hepatitis B virus, HepDE19, 168 h, read-out: DE-19 bDNA EC50, HepDE19 cells, 7 day incubation, rcDNA by Quantigene 2.0 bDNA assay.
With `CNC(=O)N[C@H]1CCOc2c(C(=O)Nc3ccc(F)c(F)c3)c(F)cc(F)c21` [Compound 116, (S)—N-(3,4-Difluorophenyl)-5,7-difluoro-4-(3-methylureido)chromane-8-carboxamide], the EC50 came out at 1.8 µM.

Consider `CC(=O)N1CCCC1COC(=O)N[C@H]1CCOc2c(C(=O)Nc3ccc(F)c(F)c3)cccc21` (single isomer, unassigned) [Compound 139], for which the EC50 stood at 4.6 µM.

With `CNC(=O)N[C@H]1CCOc2c(C(=O)Nc3ccc(F)c(F)c3)ccc(F)c21` [Compound 40, (S)—N-(3,4-difluorophenyl)-5-fluoro-4-(3-methylureido)chromane-8-carboxamide], the 50% effective concentration (EC50) was determined as 0.67 µM.

For `COc1ccnc(COC(=O)N[C@H]2CCOc3c(C(=O)Nc4ccc(F)c(F)c4)cccc32)c1` [Compound 80, (4-Methoxypyridin-2-yl)methyl (S)-(8-((3,4-difluorophenyl)carbamoyl)chroman-4-yl)carbamate hydrochloride], the half-maximal effective concentration (EC50) was determined as 2.7 µM.

Turning to `CNC(=O)N[C@H]1CCCc2c(C(=O)Nc3ccc(F)c(F)c3)cccc21` [Compound 185, (S)—N-(3,4-Difluorophenyl)-5-(3-methylureido)-5,6,7,8-tetrahydronaphthalene-1-carboxamide], the EC50 worked out at 9.8 µM.

For the molecule `CNC(=O)N1CCC(COC(=O)N[C@H]2CCOc3c(C(=O)Nc4ccc(F)c(Cl)c4)ccc(F)c32)CC1` [Compound 165, (1-(Methylcarbamoyl)piperidin-4-yl)methyl (S)-(8-((3-chloro-4-fluorophenyl)carbamoyl)-5-fluorochroman-4-yl)carbamate], the concentration for a half-maximal effect (EC50) is 0.35 µM.

As for `COC(=O)N[C@H]1CCOc2c(C(=O)Nc3ccc(F)c(C)c3)ccc(F)c21` [Compound 117, Methyl (5-fluoro-8-((4-fluoro-3-methylphenyl)carbamoyl)chroman-4-yl)carbamate], the EC50 came to 0.22 µM.

In the case of `O=C(N[C@H]1CCOc2c(C(=O)Nc3ccc(F)c(Cl)c3)ccc(F)c21)OCC1CCN(C(=O)CO)CC1` [Compound 164, (1-(2-Hydroxyacetyl)piperidin-4-yl)methyl (S)-(8-((3-chloro-4-fluorophenyl)carbamoyl)-5-fluorochroman-4-yl)carbamate], the concentration for a half-maximal effect (EC50) turned out to be 0.68 µM.

As for `COc1cccc(COC(=O)N[C@H]2CCOc3c(C(=O)Nc4ccc(F)c(F)c4)cccc32)n1` [Compound 111, (6-Methoxypyridin-2-yl)methyl (S)-(8-((3,4-difluorophenyl)carbamoyl)chroman-4-yl)carbamate hydrochloride], the EC50 stood at 2.7 µM.
